Earlier results, collected in patent US20190300958A1, “GENETIC POLYMORPHISMS ASSOCIATED WITH VENOUS THROMBOSIS AND STATIN RESPONSE, METHODS OF DETECTION AND USES THEREOF” (Celera Corporation, priority 2010, published 2019).

How the values were obtained:
myocyte cultures = conditions: animal models and myocyte cultures, compared to lipophilic statins
[1] = system: major cardiovascular events; conditions: study of 17,802 individuals

SMILES | myopathic potential (myocyte cultures) | incidence of major cardiovascular events [1]
CC[C@H](C)C(=O)O[C@H]1C[C@H](O)C=C2C=C[C@H](C)[C@H](CC[C@@H](O)C[C@@H](O)CC(=O)O)[C@H]21 [Pravastatin, pravastatin] | low myopathic potential | –
CC(C)c1nc(N(C)S(C)(=O)=O)nc(-c2ccc(F)cc2)c1/C=C/[C@@H](O)C[C@@H](O)CC(=O)O [rosuvastatin] | – | significantly reduced
